{
  "source": "patent US20160050895A1",
  "about": "“TRANSGENIC NON-HUMAN ORGANISMS WITH NON-FUNCTIONAL TSPO GENES” (AUSTRALIAN NUCLEAR SCIENCE AND TECHNOLOGY ORGANIZATION, priority 2013, published 2016)",
  "biological_target": "TSPO (Mus musculus, UniProt P50637)",
  "assay": "Receptor film autoradiography of tissue sections with [3H]PK11195 and [125I]CLINDE",
  "format": "binding",
  "design": "Snap-frozen tissues were sectioned at 20 μm in a cryostat; from tissue; host or cells: mouse organ sections (brain, retina/eye, heart, adrenal, kidney, testis, spleen), C57BL/6 background",
  "description": "Snap-frozen tissues were sectioned at 20 μm in a cryostat, thaw mounted on poly-L-lysine-coated slides and stored at −80° C. until day of experiment. On the day of the experiment, slides were thawed at room temperature and air dried with a cool stream of air. Total and non-specific binding were determined by incubation with 1 nM of 3H-PK11195 with or without the presence of 3 μM of PK11195 in 130 mM TRIS-HCl buffer (pH 7.4) at room temperature for 20 minutes. Following incubation, the slides were briefly dipped twice in 130 mM TRIS-HCl buffer, washed twice for 5 minutes in fresh 130 mM TRIS-HCl at room temperature. The slides were finally briefly rinsed 3 times in chilled distilled H2O, dried under a cool stream of air and allowed to air dried overnight. Sections were exposed to Kodak BioMax MR film along with tritium microscales with known activity concentrations in X-ray film cassettes. Films were developed after 33 days and digitized using a GS800 Calibrated Densitometer (Bio-Rad, Hercules, Calif., USA). Images were analysed with Quantity One imaging analysis program (Bio-Rad, Hercules, Calif. USA); to assess the level of 3H-PK11195 binding, regions of interest were drawn over the tissue and an average optical density/mm^2 was calculated. Data obtained from an individual film, subject to interfilm variations, were normalized against other films through the optical density oftritium microscales.\nThe organs including brain, retina, heart, kidney and testes used for film autoradiography were dissected from wild-type (TSPO^+/+), heterozygous (TSPO^+/−), and homozygous (TSPO^−/−) mice and snap-frozen in liquid nitrogen. Cryostat organ sections at 18 μm were placed onto superfrost slides (Menzel-Glaser, Braunschweig, Germany) and stored in the dark at −20° C. for no longer than 1 week before the experiment. […] Tritium standards (Amersham Biosciences, Uppsala, Sweden) co-exposed with the organ sections on each Hyperfilm-^3H (Kodak Film) at 4° C. for 60 days, were used to quantify the autoradiographically measured binding. The hyperfilm was developed using Kodak GBX developer and fixer (Sigma Aldrich, St. Louis, Mo., U.S.A.). The hyperfilm was air-dried overnight before being scanned using the ArtixScan 1800f flatbed scanner (Microtek, Hsinchu, Taiwan), with greyscale using a magnification of 400% and an optical resolution of 2400 pixels per inch. No pre-scanning manipulation or filter was applied.\nTissue sections from TSPO^+/+, TSPO^+/− and TSPO^−/− mice were incubated at room temperature for 20 min in 170 mM Tris-HCl pH 7.4 containing 1 nM [^3H]PK11195 (specific activity 84 Ci/mmol; Perkin Elmer, Waltham, Mass., USA), washed twice for 5 min in 170 mM Tris-HCl, rinsed with 3 dips in ice-cold MilliQ H2O, and dried. […] Displacement binding was carried out in the presence of PK11195 (10 μM), CLINDE (10 μM) and PBR-11 (10 μM).",
  "data": [
    {"smiles": "CC[C@@H](C)N(C)C(=O)c1cc2ccccc2c(-c2ccccc2Cl)n1", "note": "[[^3H]PK11195]", "values": [
      {"measurement": "selectivity for TSPO", "setting": "in vitro, validated against TSPO-/- null background", "result": "high selectivity"},
      {"measurement": "Specific binding in tissue sections", "setting": "spleen, kidney, testis sections from TSPO+/+ and TSPO+/- mice, 3 nM [125I]CLINDE, 1 nM [3H]PK11195", "result": "clearly visible"}
    ]}
  ]
}
